Test system: brains, heart, liver, muscle, and DRG of the NHPs
Experiment: Maturation of TTM-001 and TTM-002 capsids, NGS enrichment in NHP tissues
Type: in vivo
Description: This Example describes maturation of the AAV9 capsid variants, TTM-001 (SEQ ID NO: 981 (amino acid) and 983 (DNA), comprising SEQ ID NO: 941 (encoded by SEQ ID NO: 942)) and TTM-002 (SEQ ID NO: 982 (amino acid) and 984 (DNA), comprising SEQ ID NO: […] (encoded by SEQ ID NO: 944)) in NHPs to further enhance their transduction and biodistribution in the central nervous system as well as other tissues, and evolve the AAV capsid variants to provide further cross-species compatibility. Two approaches were used to mature the TTM-001 and TTM-002 capsid sequences in order to randomize and mutate within and around the peptide insert comprised within loop IV of the capsid variant. […] In the first maturation approach, sets of three contiguous amino acids were randomized across the mutagenesis region in the TTM-001 and TTM-002 sequences, which spanned from position 450 to position 466, numbered according to SEQ ID NO: 981 and 982. In the second maturation approach, mutagenic primers were used to introduce point mutations at a low frequency, scattered across the mutagenesis region in the TTM-001 and TTM-002 sequences ranging from position 449 to position 466, numbered according to SEQ ID NO: 981 and 982. AAV capsid variants arising from each maturation approach for TTM-001 and TTM-002 were pooled together, for subsequent testing and characterization in NHPs.
The library of pooled matured AAV capsid variants generated using the first maturation approach and the second maturation approach for the TTM-001 and TTM-002 AAV capsid variants were injected into two NHPs. […] Following RNA recovery and RT-PCR amplification, a systematic NGS enrichment analysis was performed to calculate the fold enrichment ratio relative to an AAV9 control, and the peptides comprised within the variants were identified.
Following the RNA recovery and NGS analysis from the second maturation approach, approximately 680,000 capsid variants were identified. The 680,000 matured capsid variants were then filtered based on samples with a raw virus count greater than 10 and a coefficient of variance (CV) of less than 1, which was calculated for each peptide across the brain samples taken from the two NHPs. […] Using this filtering criteria, this led to approximately 64,000 matured capsid variants.

[1] = NHP DRG, NGS, relative to AAV9 control
[2] = NHP brain, NGS, relative to AAV9 control
[3] = NHP heart, NGS, relative to AAV9 control
[4] = NHP liver DNA, NGS, relative to AAV9 control
[5] = NHP liver RNA, NGS, TTM-001 and TTM-002 matured AAV capsid variants, relative to AAV9 control
[6] = NHP muscle, NGS, relative to AAV9 control
[7] = NGS fold-enrichment, DRG, NHP, relative to AAV9
[8] = NGS fold-enrichment, brain, NHP, relative to AAV9
[9] = NGS fold-enrichment, heart, NHP, relative to AAV9
[10] = NGS fold-enrichment, liver DNA, NHP, relative to AAV9
[11] = NGS fold-enrichment, liver RNA, NHP, relative to AAV9
[12] = NGS fold-enrichment, muscle, NHP, relative to AAV9

Row | Sequence | Fold Enrichment relative to AAV9, DRG (NHP) [1] [fold] | Fold Enrichment relative to AAV9, Brain (NHP) [2] [fold] | Fold Enrichment relative to AAV9, Heart (NHP) [3] [fold] | Fold Enrichment relative to AAV9, Liver DNA (NHP) [4] [fold] | Fold Enrichment relative to AAV9, Liver RNA (NHP) [5] [fold] | Fold Enrichment relative to AAV9, Muscle (NHP) [6] [fold] | Fold Enrichment relative to AAV9, DRG (NHP) [7] [fold] | Fold Enrichment relative to AAV9, Brain (NHP) [8] [fold] | Fold Enrichment relative to AAV9, Heart (NHP) [9] [fold] | Fold Enrichment relative to AAV9, Liver DNA (NHP) [10] [fold] | Fold Enrichment relative to AAV9, Liver RNA (NHP) [11] [fold] | Fold Enrichment relative to AAV9, Muscle (NHP) [12] [fold]
1 | KTINGSGSPHSRFWNQQT | 0.000 | 0.000 | 0.000 | 6.955 | 51.225 | 0.000 | – | – | – | – | – | –
2 | KTINGSGSPHSKAQFILT | 0.000 | 0.000 | 0.000 | 4.208 | 16.650 | 0.000 | – | – | – | – | – | –
3 | KTINGSGSPHSKAQKCIT | 0.000 | 0.000 | 0.000 | 1.887 | 69.547 | 0.000 | – | – | – | – | – | –
4 | KTINGSGSPHSKVRMQQT | 0.000 | 0.000 | 0.000 | 1.835 | 11.572 | 0.000 | – | – | – | – | – | –
5 | KTINGSGSPHSRCRNQQT | 0.000 | 0.000 | 0.000 | 5.150 | 64.416 | 0.000 | – | – | – | – | – | –
6 | KTINGSSSPHWMAQNQQT (peptide inserted in AAV capsid) | 0.000 | 0.000 | 0.000 | 2.390 | 16.635 | 0.000 | – | – | – | – | – | –
7 | KTINGSGSPHSVRYNQQT | 0.000 | 0.000 | 0.000 | 1.413 | 16.390 | 0.000 | – | – | – | – | – | –
8 | KTINGSGSPHSKPKRQQT | 0.000 | 0.000 | 0.000 | 2.832 | 52.881 | 0.000 | – | – | – | – | – | –
9 | KPFLGSGSPHSKAQNQQT | – | – | – | – | – | – | 0.000 | 0.000 | 0.000 | 1.328 | 10.318 | 0.000
10 | KTINGSGSPHCPAQNQQT | 0.000 | 0.000 | 0.000 | 1.409 | 13.359 | 0.000 | – | – | – | – | – | –
11 | KTINGSGSPHFPFQNQQT | – | – | – | – | – | – | 0.000 | 0.000 | 0.000 | 3.715 | 10.322 | 0.000
12 | KWLTGSGSPHSKAQNQQT (peptide inserted in AAV capsid) | 0.000 | 0.364 | 0.000 | 2.388 | 26.975 | 2578.486 | – | – | – | – | – | –
13 | KTINGSGSPHSKAKGWQT | – | – | – | – | – | – | 0.000 | 0.000 | 0.000 | 1.827 | 10.450 | 0.000
14 | KTINGSGSPHMAFQNQQT | 0.000 | 0.000 | 0.000 | 0.542 | 17.644 | 0.000 | – | – | – | – | – | –
15 | KTINGSGSPHSKCFLQQT | 0.000 | 0.000 | 0.000 | 1.434 | 22.987 | 0.000 | – | – | – | – | – | –
16 | KTINGSGSPHSKACRLQT | 0.000 | 0.000 | 0.000 | 6.537 | 12.297 | 0.000 | – | – | – | – | – | –
17 | KTINGSGSPHIVWQNQQT | 0.000 | 0.000 | 0.000 | 6.056 | 58.021 | 0.000 | – | – | – | – | – | –

— patent publication US20260250318A1, “COMPOSITIONS AND METHODS FOR CROSSING THE BLOOD BRAIN BARRIER” (VOYAGER THERAPEUTICS, INC., priority 2022, published 2026)
